pIC50: −log10 of the molar value. In brackets after ≈: the same amount, converted by molar mass.
Key:
[1] = target: cGMP-dependent 3',5'-cyclic phosphodiesterase (Homo sapiens, UniProt O00408); test: Inhibition of human recombinant PDE2A using cAMP as substrate preincubated for 20 mins followed by substrate addition measured after 2 hrs by FRET assay
[2] = Equilibrium solubility of the compound in phosphate buffer at pH 7.4; assay type: physicochemical
[3] = target: T1, cAMP and cAMP-inhibited cGMP 3',5'-cyclic phosphodiesterase 10A (Homo sapiens, UniProt Q9Y233); test: Inhibition of human recombinant PDE10A using cAMP as substrate preincubated for 20 mins followed by substrate addition measured after 2 hrs by FRET assay
[4] = target: T1, cAMP and cAMP-inhibited cGMP 3',5'-cyclic phosphodiesterase 10A; test: Inhibition of human recombinant PDE10A using cAMP as substrate at 30 uM preincubated for 20 mins followed by substrate addition measured after 2 hrs by FRET assay
[5] = target: T1, cAMP and cAMP-inhibited cGMP 3',5'-cyclic phosphodiesterase 10A; test: Binding affinity to human recombinant PDE10A after 15 mins by surface plasmon resonance assay

Sequence of cGMP-dependent 3',5'-cyclic phosphodiesterase (O00408 whole entry): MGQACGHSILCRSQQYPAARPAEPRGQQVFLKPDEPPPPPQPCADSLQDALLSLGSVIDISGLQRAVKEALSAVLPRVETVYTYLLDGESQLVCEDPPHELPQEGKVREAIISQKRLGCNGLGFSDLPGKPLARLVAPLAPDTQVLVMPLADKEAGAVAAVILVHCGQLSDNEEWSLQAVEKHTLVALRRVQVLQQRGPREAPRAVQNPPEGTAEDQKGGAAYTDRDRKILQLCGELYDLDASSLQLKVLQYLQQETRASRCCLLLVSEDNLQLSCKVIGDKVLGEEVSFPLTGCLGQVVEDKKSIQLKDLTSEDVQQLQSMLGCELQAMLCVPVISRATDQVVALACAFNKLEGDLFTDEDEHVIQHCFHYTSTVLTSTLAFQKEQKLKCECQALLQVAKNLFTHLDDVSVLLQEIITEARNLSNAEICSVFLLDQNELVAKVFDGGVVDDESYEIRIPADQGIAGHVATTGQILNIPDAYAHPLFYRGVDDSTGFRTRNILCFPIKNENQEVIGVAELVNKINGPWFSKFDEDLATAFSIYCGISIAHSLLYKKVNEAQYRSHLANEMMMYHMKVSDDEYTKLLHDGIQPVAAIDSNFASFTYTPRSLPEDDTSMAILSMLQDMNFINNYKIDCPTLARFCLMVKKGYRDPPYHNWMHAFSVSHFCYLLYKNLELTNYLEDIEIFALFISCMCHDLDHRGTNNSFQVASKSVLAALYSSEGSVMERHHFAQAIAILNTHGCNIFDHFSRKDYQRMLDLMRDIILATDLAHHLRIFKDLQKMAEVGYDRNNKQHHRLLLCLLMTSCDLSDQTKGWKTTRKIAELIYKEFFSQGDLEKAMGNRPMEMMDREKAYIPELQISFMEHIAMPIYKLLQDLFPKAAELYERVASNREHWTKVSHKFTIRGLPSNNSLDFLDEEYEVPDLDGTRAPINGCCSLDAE
T1 sequence (Q9Y233 whole entry): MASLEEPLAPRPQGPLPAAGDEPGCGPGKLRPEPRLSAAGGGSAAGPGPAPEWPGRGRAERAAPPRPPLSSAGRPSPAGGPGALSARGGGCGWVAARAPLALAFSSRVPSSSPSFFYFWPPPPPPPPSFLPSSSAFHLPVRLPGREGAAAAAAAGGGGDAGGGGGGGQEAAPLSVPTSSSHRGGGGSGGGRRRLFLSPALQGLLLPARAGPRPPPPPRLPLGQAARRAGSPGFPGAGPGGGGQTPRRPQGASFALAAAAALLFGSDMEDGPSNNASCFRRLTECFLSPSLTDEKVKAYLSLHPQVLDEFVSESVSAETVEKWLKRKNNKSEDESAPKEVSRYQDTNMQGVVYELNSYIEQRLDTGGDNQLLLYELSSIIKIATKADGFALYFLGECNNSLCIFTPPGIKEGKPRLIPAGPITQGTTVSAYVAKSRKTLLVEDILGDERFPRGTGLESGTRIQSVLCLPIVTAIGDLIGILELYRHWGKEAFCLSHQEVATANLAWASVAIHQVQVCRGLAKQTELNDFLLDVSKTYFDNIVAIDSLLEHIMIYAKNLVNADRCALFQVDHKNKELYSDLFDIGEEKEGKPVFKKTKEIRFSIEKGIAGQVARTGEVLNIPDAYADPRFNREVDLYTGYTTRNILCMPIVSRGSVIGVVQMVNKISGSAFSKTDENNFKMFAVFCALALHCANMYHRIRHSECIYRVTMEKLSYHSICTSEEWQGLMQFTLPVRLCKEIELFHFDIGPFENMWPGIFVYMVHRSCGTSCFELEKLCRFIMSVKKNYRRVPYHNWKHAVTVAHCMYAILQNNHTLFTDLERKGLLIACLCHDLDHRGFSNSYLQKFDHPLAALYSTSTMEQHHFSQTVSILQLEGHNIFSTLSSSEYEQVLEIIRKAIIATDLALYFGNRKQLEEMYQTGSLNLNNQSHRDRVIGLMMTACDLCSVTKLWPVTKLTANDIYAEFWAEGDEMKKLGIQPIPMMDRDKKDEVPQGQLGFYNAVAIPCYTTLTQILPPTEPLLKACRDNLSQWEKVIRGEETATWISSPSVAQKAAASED

With `N#Cc1cccc(C(=O)Nc2ncc(-c3nc4ccccc4[nH]3)s2)c1` as the molecule, how does the pIC50 [1] read?
The pIC50 was less than 4.00.

What about the solubility thermodynamic [2] of the same molecule?
Its solubility thermodynamic is 1 µM (≈ 0.345 µg/mL).

And the pIC50 [3]?
Its pIC50 is 6.96.

Which solubility thermodynamic [2] does the source give for `Cc1nocc1C(=O)Nc1cc(-c2nc3ccccc3[nH]2)[nH]n1` here?
The solubility thermodynamic was 2 µM (≈ 0.617 µg/mL).

What about the pIC50 [3] of the same molecule?
Its pIC50 is 5.42.

For `CS(=O)(=O)c1cccc(C(=O)Nc2cc(-c3nc4ccccc4[nH]3)[nH]n2)c1`, which inhibition [4] is on record?
Its inhibition is 23%.

What about the pIC50 [3] of the same molecule?
Its pIC50 is less than 4.52.

With `Cc1csc(-c2ccccn2)n1` as the molecule, how does the pIC50 [5] read?
The pIC50 was 3.49.

With `N#Cc1cccc(C(=O)Nc2ncc(-c3nc4ccccc4n3CCN)s2)c1` as the molecule, how does the solubility thermodynamic [2] read?
The solubility thermodynamic was 13 µM (≈ 5.05 µg/mL).

What about the pIC50 [3] of the same molecule?
Its pIC50 is 6.31.

With `Cn1c(-c2cnc(NC(=O)c3cccc(C#N)c3)s2)nc2ccccc21` as the molecule, how does the solubility thermodynamic [2] read?
Its solubility thermodynamic is less than 1 µM.

What about the pIC50 [3] of the same molecule?
Its pIC50 is 6.92.

With `Cc1c(Cl)cccc1C(=O)Nc1cc(-c2nc3ccccc3[nH]2)[nH]n1` as the molecule, how does the pIC50 [1] read?
The pIC50 was less than 4.00.

And the solubility thermodynamic [2]?
Its solubility thermodynamic is less than 1 µM.

And the pIC50 [3]?
Its pIC50 is 7.00.

With `Cc1cc(-c2ccco2)[nH]n1` as the molecule, how does the pIC50 [5] read?
The pIC50 was 3.07.

What does the source list for `Cc1c(Cl)cccc1C(=O)Nc1ncc(-c2nc3ccccc3n2C)s1`?
pIC50 [1]: < 4.00; solubility thermodynamic [2]: < 1 µM; pIC50 [3]: 7.80

What does the source list for `Cc1cccc(C(=O)Nc2cc(-c3nc4ccccc4[nH]3)[nH]n2)c1Cl`?
solubility thermodynamic [2]: < 1 µM; pIC50 [3]: 6.55
